Measured values taken from patent US9464084B2, “P2X7 modulators” (Janssen Pharmaceutica NV, priority 2013, dated 2016).

Experiments:
P2X7 = P2X7 (Homo sapiens (Human), UniProt Q99572); assay: P2X7 antagonism in human PBMCs (LPS + Bz-ATP induced IL-1β release, ELISA); assay type: cell-based; settings: LPS 30 ng/ml, Bz-ATP 0.5 mM; for PBMC 10 μM (% control): compound 10 μM; for PBMC 1 μM (% control): compound 1 μM;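 for all read-outs here: PBMCs from donor human blood, with a further 1.5 h incubation of the cells in the assay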
rat P2X7 = rat P2X7 (Rattus norvegicus (Rat), UniProt Q64663); assay: Ca2+ flux (FLIPR) in 1321N1 cells expressing recombinant rat P2X7 channel; assay type: cell-based; settings: 250 μM BzATP;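 note: Calcium-4 dye fluorescence change read 180 s after agonist addition, following 30 min cell preincubation with test compound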
Sequence of rat P2X7 (Q64663 whole entry): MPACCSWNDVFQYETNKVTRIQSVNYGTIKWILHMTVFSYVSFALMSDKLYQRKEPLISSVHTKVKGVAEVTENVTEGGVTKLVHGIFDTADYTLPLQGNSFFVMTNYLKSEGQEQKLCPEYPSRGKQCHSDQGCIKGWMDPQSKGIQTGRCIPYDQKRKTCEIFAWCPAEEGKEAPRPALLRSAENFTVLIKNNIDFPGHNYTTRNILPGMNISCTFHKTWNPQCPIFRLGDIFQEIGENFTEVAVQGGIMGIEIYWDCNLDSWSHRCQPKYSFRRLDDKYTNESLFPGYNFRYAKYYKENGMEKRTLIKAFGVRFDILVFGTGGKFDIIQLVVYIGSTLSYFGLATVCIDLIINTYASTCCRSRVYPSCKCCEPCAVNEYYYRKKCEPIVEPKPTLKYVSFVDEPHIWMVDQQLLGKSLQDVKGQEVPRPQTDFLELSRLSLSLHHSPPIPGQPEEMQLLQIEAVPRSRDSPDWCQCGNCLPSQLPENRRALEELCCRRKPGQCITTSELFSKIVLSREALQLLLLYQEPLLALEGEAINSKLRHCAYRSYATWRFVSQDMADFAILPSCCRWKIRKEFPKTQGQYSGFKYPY

Sequence of P2X7 (Q99572 whole entry): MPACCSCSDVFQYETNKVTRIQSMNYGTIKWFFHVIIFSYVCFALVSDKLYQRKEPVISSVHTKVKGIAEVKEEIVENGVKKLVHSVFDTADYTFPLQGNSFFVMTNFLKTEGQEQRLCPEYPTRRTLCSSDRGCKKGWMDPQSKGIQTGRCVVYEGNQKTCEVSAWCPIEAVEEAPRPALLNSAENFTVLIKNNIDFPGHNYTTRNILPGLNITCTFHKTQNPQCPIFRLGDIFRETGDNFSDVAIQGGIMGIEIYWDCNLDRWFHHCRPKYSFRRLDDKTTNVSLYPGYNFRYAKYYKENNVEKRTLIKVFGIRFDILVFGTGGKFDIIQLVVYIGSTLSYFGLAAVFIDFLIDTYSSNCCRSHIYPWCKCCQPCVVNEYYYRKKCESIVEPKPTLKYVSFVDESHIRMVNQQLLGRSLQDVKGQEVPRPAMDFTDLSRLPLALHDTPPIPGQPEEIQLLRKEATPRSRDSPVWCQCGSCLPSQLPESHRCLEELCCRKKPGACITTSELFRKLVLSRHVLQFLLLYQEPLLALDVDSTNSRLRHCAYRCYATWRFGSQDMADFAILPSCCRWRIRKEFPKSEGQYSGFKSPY

| SMILES | PBMC 10 μM (% control) (P2X7) | IC50 (rat P2X7) | PBMC 1 μM (% control) (P2X7) |
| --- | --- | --- | --- |
| C[C@@H]1Cc2c(nnn2-c2cc(F)ccn2)CN1C(=O)c1cccc(Cl)c1Cl (single isomer, unassigned) [Example 195, (6R*)-5-[(2,3-Dichlorophenyl)carbonyl]-1-(4-fluoropyridin-2-yl)-6-methyl-4,5,6,7-tetrahydro-1H-[1,2,3]triazolo[4,5-c]pyridine] | 14.4 % control | 10.8 nM |  |
| C[C@@H]1c2ncn(-c3ccccn3)c2CCN1C(=O)c1cccc(Cl)c1Cl (single isomer, unassigned) [Example 192, (R*)-(2,3-Dichlorophenyl)(4-methyl-1-(pyridin-2-yl)-6,7-dihydro-1H-imidazo[4,5-c]pyridin-5(4H)-yl)methanone] | −6.3 % control | 10000 nM |  |
| Cc1cc(C)nc(-n2nnc3c2CCN(C(=O)c2cccc(C(F)(F)F)c2Cl)[C@@H]3C)n1 (single isomer, unassigned) [Example 181, (R*)-(2-chloro-3-(trifluoromethyl)phenyl)(1-(4,6-dimethylpyrimidin-2-yl)-4-methyl-6,7-dihydro-1H-[1,2,3]triazolo[4,5-c]pyridin-5(4H)-yl)methanone] | −0.1 % control | > 10000 nM |  |
| Cc1cc(C)nc(-n2nnc3c2CCN(C(=O)c2cccc(C(F)(F)F)c2Cl)C3C)n1 (centres unmarked) [Example 253, (2-Chloro-3-(trifluoromethyl)phenyl)(1-(4,6-dimethylpyrimidin-2-yl)-4-methyl-6,7-dihydro-1H-[1,2,3]triazolo[4,5-c]pyridin-5(4H)-yl)methanone] | −2.6 % control | 12700 nM |  |
| COc1ccnc(-n2nnc3c2CCN(C(=O)c2cccc(C(F)(F)F)c2Cl)C3)c1 [Example 136, (2-Chloro-3-(trifluoromethyl)phenyl)(1-(4-methoxypyridin-2-yl)-6,7-dihydro-1H-[1,2,3]triazolo[4,5-c]pyridin-5(4H)-yl)methanone] | 5.3 % control | 133 nM |  |
| C[C@@H]1c2n[nH]c(-c3ncc(F)cn3)c2CCN1C(=O)c1cccc(C(F)(F)F)c1Cl (single isomer, unassigned) [Example 223, (R*)-(2-chloro-3-(trifluoromethyl)phenyl)(3-(5-fluoropyrimidin-2-yl)-7-methyl-4,5-dihydro-2H-pyrazolo[3,4-c]pyridin-6(7H)-yl)methanone] | 1.8 % control | 564 nM |  |
| CC1c2ncn(-c3cnccn3)c2CCN1C(=O)c1cccc(C(F)(F)F)c1F (centres unmarked) [Example 14, (2-Fluoro-3-(trifluoromethyl)phenyl)(4-methyl-1-(pyrazin-2-yl)-6,7-dihydro-1H-imidazo[4,5-c]pyridin-5(4H)-yl)methanone] |  | 141 nM | 12.8 % control |
| Cc1ccc(-n2nnc3c2CCN(C(=O)c2cccc(C(F)(F)F)c2Cl)[C@@H]3C)nc1 (single isomer, unassigned) [Example 255, (R*)-(2-chloro-3-(trifluoromethyl)phenyl)(4-methyl-1-(5-methylpyridin-2-yl)-6,7-dihydro-1H-[1,2,3]triazolo[4,5-c]pyridin-5(4H)-yl)methanone] | −5.5 % control | 211 nM |  |
| CC1c2ncn(-c3ncccn3)c2CCN1C(=O)c1cccc(C(F)(F)F)c1Cl (centres unmarked) [Example 23, (2-Chloro-3-(trifluoromethyl)phenyl)(4-methyl-1-(pyrimidin-2-yl)-6,7-dihydro-1H-imidazo[4,5-c]pyridin-5(4H)-yl)methanone] | 6.4 % control | 90.6 nM |  |
| CCc1cccnc1-n1nnc2c1CCN(C(=O)c1cccc(C(F)(F)F)c1Cl)C2C (centres unmarked) [Example 254, (2-Chloro-3-(trifluoromethyl)phenyl)(1-(3-ethylpyridin-2-yl)-4-methyl-6,7-dihydro-1H-[1,2,3]triazolo[4,5-c]pyridin-5(4H)-yl)methanone] | 0.9 % control | 4260 nM |  |
| Cc1nc(-n2nnc3c2CCN(C(=O)c2cccc(C(F)(F)F)c2Cl)C3C)ncc1F (centres unmarked) [Example 230, (2-chloro-3-(trifluoromethyl)phenyl)(1-(5-fluoro-4-methylpyrimidin-2-yl)-4-methyl-6,7-dihydro-1H-[1,2,3]triazolo[4,5-c]pyridin-5(4H)-yl)methanone] | 2.9 % control | 89.5 nM |  |
| C[C@@H]1c2nnn(-c3cnccn3)c2CCN1C(=O)c1ccc(F)c(Cl)c1Cl (single isomer, unassigned) [Example 143, (R*)-(2,3-Dichloro-4-fluorophenyl)(4-methyl-1-(pyrazin-2-yl)-6,7-dihydro-1H-[1,2,3]triazolo[4,5-c]pyridin-5(4H)-yl)methanone] | 58.0 % control |  |  |
| C[C@@H]1c2ncn(-c3ccc(F)cn3)c2CCN1C(=O)c1cccc(C(F)(F)F)c1Cl (single isomer, unassigned) [Example 40, (R*)-(2-chloro-3-(trifluoromethyl)phenyl)(1-(5-fluoropyridin-2-yl)-4-methyl-6,7-dihydro-1H-imidazo[4,5-c]pyridin-5(4H)-yl)methanone] | 36.5 % control |  |  |
| C[C@@H]1Cc2c(nnn2-c2ncc(F)cn2)CN1C(=O)c1cccc(C(F)(F)F)c1Cl (single isomer, unassigned) [Example 201, (6R*)-5-{[2-Chloro-3-(trifluoromethyl)phenyl]carbonyl}-1-(5-fluoropyrimidin-2-yl)-6-methyl-4,5,6,7-tetrahydro-1H-[1,2,3]triazolo[4,5-c]pyridine] | 20.4 % control |  |  |
| Cc1cc(C)nc(-n2nnc3c2CCN(C(=O)c2cccc(C(F)(F)F)c2Cl)[C@H]3C)n1 (single isomer, unassigned) [Example 182, (S*)-(2-chloro-3-(trifluoromethyl)phenyl)(1-(4,6-dimethylpyrimidin-2-yl)-4-methyl-6,7-dihydro-1H-[1,2,3]triazolo[4,5-c]pyridin-5(4H)-yl)methanone] | 62.5 % control |  |  |

The next lines start with the values.

| PBMC 10 μM (% control) (P2X7) | IC50 (rat P2X7) | PBMC 1 μM (% control) (P2X7) | SMILES |
| --- | --- | --- | --- |
| −11.3 % control | 428 nM |  | CCCOc1cccnc1-n1nnc2c1CCN(C(=O)c1cccc(C(F)(F)F)c1Cl)C2C (centres unmarked) [Example 293, (2-chloro-3-(trifluoromethyl)phenyl)(4-methyl-1-(3-propoxypyridin-2-yl)-6,7-dihydro-1H-[1,2,3]triazolo[4,5-c]pyridin-5(4H)-yl)methanone] |
| −3.8 % control | 55.6 nM |  | CC1Cc2c(nnn2-c2ccccn2)CN1C(=O)c1cccc(Cl)c1Cl (centres unmarked) [Example 120, 5-[(2,3-Dichlorophenyl)carbonyl]-6-methyl-1-pyridin-2-yl-4,5,6,7-tetrahydro-1H-[1,2,3]triazolo[4,5-c]pyridine] |
| −3.3 % control | > 10000 nM |  | O=C(c1cccc(Cl)c1Cl)N1CCc2c(-c3ccncc3)n[nH]c2C1 [Example 115, 6-[(2,3-Dichlorophenyl)carbonyl]-3-pyridin-4-yl-4,5,6,7-tetrahydro-2H-pyrazolo[3,4-c]pyridine] |
| 0.9 % control | 19.7 nM |  | Cc1nc(-n2nnc3c2CCN(C(=O)c2cccc(C(F)(F)F)c2Cl)[C@@H]3C)ncc1F (single isomer, unassigned) [Example 305, (R*)-(2-chloro-3-(trifluoromethyl)phenyl)(1-(5-fluoro-4-methylpyrimidin-2-yl)-4-methyl-6,7-dihydro-1H-[1,2,3]triazolo[4,5-c]pyridin-5(4H)-yl)methanone] |
|  | 1890 nM | 39.2 % control | CCOC(=O)C1c2ncn(-c3ccccc3)c2CCN1C(=O)c1cccc(Cl)c1Cl (centres unmarked) [Example 27, Ethyl 5-(2,3-dichlorobenzoyl)-1-phenyl-4,5,6,7-tetrahydro-1H-imidazo[4,5-c]pyridine-4-carboxylate] |
| 8.5 % control | 187 nM |  | CC1c2nnn(-c3ncccc3F)c2CCN1C(=O)c1cccc(C(F)(F)F)c1Cl (centres unmarked) [Example 84, 5-{[2-Chloro-3-(trifluoromethyl)phenyl]carbonyl}-1-(3-fluoropyridin-2-yl)-4-methyl-4,5,6,7-tetrahydro-1H-[1,2,3]triazolo[4,5-c]pyridine] |
| 7.5 % control | > 10000 nM |  | C[C@H]1Cc2c(nnn2-c2ncc(F)cn2)CN1C(=O)c1cc(C(F)(F)F)ccc1F (single isomer, unassigned) [Example 232, (S*)-(2-fluoro-5-(trifluoromethyl)phenyl)(1-(5-fluoropyrimidin-2-yl)-6-methyl-6,7-dihydro-1H-[1,2,3]triazolo[4,5-c]pyridin-5(4H)-yl)methanone] |
| 7.1 % control |  |  | C[C@@H]1c2nnn(-c3ncc(F)cn3)c2CCN1C(=O)c1cccc(C(F)(F)F)c1F (single isomer, unassigned) [Example 190, (R*)-(2-fluoro-3-(trifluoromethyl)phenyl)(1-(5-fluoropyrimidin-2-yl)-4-methyl-6,7-dihydro-1H-[1,2,3]triazolo[4,5-c]pyridin-5(4H)-yl)methanone] |
|  |  | 18.0 % control | Cn1nc2c(c1-c1ccccc1)CCN(C(=O)c1cccc(Cl)c1Cl)C2 [Example 102, 6-[(2,3-Dichlorophenyl)carbonyl]-2-methyl-3-phenyl-4,5,6,7-tetrahydro-2H-pyrazolo[3,4-c]pyridine] |
| 1.5 % control |  |  | Cc1ccnc(-n2nnc3c2CCN(C(=O)c2cccc(C(F)(F)F)c2Cl)C3C)c1 (centres unmarked) [Example 299, (2-chloro-3-(trifluoromethyl)phenyl)(4-methyl-1-(4-methylpyridin-2-yl)-6,7-dihydro-1H-[1,2,3]triazolo[4,5-c]pyridin-5(4H)-yl)methanone] |
| −1.0 % control |  |  | Cc1c(C(=O)N2Cc3nnn(-c4ncc(F)cn4)c3CC2C)cccc1C(F)(F)F (centres unmarked) [Example 206, 1-(5-Fluoropyrimidin-2-yl)-6-methyl-5-{[2-methyl-3-(trifluoromethyl)phenyl]carbonyl}-4,5,6,7-tetrahydro-1H-[1,2,3]triazolo[4,5-c]pyridine] |
